According to PMC3556037, “Stimulation of Inositol 1,4,5-Trisphosphate (IP3) Receptor Subtypes by Analogues of IP3” (PLoS ONE, 2013):
Where two headings read alike, the source gives them in different places.

What was measured:
Test in all cases: Ca2+ release from ER of permeabilized DT40 cells, luminal Mag fluo-4
IP3R2 = biological target: T1, IP3R2 (Mus musculus, UniProt Q9Z329); type: cell-based
T1 construct: gene Itpr2; full-length, homotetramer, stably expressed in DT40 cells lacking all endogenous IP3R; saponin-permeabilized cells
Text: Ca2+ release from ER of permeabilized DT40 cells, luminal Mag fluo-4 on IP3R2

IP3R3 [1] = biological target: T2, IP3R3 (Rattus norvegicus, UniProt Q63269); type: cell-based
T2 construct: gene Itpr3; full-length, homotetramer, stably expressed in DT40 cells lacking all endogenous IP3R; saponin-permeabilized cells
T2 sequence (Q63269 whole entry): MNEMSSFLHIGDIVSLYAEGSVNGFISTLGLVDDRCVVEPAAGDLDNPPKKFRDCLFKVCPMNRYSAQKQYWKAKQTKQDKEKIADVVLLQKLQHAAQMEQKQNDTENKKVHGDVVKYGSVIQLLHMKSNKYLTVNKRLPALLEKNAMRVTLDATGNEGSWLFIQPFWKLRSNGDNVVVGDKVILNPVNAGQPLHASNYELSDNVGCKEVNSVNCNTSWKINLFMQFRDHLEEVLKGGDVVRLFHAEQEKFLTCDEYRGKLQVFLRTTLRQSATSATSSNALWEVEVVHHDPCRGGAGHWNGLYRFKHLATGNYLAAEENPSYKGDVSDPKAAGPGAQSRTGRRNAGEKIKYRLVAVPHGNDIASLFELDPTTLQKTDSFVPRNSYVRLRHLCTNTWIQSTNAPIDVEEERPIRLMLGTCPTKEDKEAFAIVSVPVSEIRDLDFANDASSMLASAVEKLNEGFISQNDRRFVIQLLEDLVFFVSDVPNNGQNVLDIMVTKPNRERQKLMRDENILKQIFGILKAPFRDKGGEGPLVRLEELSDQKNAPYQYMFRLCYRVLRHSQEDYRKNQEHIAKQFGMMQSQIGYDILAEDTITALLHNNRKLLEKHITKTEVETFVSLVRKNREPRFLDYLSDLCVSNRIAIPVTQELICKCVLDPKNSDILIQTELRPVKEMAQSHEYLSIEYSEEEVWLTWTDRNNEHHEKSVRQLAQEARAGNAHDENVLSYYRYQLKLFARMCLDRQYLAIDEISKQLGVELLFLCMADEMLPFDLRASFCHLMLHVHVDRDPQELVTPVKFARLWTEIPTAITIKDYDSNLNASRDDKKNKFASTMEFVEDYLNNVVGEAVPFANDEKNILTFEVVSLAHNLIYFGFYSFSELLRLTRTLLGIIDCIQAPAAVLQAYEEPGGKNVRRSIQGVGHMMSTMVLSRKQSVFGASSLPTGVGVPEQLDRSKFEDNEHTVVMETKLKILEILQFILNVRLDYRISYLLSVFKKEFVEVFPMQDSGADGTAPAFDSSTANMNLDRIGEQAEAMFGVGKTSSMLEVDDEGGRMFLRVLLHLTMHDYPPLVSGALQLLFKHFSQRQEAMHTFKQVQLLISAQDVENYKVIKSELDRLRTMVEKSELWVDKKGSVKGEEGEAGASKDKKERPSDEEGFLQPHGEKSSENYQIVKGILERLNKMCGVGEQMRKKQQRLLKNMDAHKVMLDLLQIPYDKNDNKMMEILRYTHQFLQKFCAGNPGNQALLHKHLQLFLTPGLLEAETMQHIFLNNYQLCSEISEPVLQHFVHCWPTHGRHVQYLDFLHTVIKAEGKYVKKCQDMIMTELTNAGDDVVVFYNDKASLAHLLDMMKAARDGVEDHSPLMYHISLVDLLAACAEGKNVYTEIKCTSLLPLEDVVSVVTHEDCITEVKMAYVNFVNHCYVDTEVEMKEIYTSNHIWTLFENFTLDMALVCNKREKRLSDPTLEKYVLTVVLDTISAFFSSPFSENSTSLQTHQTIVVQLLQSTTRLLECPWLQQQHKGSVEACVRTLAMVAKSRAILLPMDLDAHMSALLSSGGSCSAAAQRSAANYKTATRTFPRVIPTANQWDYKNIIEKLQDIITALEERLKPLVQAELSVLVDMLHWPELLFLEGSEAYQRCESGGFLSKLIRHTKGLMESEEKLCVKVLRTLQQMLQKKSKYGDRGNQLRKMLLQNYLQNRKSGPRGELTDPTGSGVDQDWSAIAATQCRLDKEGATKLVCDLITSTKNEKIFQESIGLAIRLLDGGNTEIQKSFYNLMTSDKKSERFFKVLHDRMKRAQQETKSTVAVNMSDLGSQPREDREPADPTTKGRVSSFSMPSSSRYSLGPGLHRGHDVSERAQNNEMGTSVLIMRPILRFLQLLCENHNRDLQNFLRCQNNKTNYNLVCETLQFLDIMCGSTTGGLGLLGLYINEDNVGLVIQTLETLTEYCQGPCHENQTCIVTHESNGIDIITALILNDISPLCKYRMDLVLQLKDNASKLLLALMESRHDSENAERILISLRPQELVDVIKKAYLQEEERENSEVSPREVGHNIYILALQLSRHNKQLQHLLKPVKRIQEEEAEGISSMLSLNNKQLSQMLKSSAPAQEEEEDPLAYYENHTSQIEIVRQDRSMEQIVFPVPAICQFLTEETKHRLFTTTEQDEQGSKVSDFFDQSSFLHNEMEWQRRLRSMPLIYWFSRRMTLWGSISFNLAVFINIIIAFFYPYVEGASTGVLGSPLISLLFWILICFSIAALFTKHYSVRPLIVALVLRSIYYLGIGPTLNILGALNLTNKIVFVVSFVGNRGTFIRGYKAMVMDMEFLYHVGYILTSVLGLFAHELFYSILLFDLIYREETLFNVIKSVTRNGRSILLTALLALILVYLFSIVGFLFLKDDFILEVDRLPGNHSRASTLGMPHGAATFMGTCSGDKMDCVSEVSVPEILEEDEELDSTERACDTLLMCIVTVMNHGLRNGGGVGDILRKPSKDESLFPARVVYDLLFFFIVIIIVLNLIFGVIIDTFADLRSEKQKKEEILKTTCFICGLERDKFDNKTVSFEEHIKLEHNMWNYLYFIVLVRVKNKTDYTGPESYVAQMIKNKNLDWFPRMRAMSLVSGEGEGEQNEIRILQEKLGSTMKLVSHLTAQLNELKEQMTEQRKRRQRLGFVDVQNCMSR
Text: (§1) Ca2+ release from ER of permeabilized DT40 cells, luminal Mag fluo-4 on IP3R3

IP3R3 [2] = biological target: T2, IP3R3; type: biochemical
Text: as §1

[3] = 100 µM, 1.5 mM MgATP, free Ca2+ ~220 nM, pH 7, 20 °C, thapsigargin 1 µM, unreliable: paper suspects minor contamination by active IP3

SMILES | EC50 (IP3R2) | EC50 (IP3R3 [1]) | EC50 (IP3R3 [2]) | IP3R2 / Ca^2+release (%) (IP3R2; [3]) | IP3R3 / Ca^2+release (%) (IP3R3 [1]; [3])
O=P(O)(O)O[C@@H]1[C@@H](O)[C@@H](O)[C@@H](OP(=O)(O)O)[C@H](OP(=O)(O)O)[C@H]1O [(1,4,6)IP3] | 12.6 µM | 15.8 µM |  |  | 
CN(C)c1ccc(C(=C2C=CC(=[N+](C)C)C=C2)c2ccc(C(=O)NCCCOP(=O)(O)O[C@@H]3[C@H](O)[C@H](O)[C@@H](OP(=O)(O)O)[C@H](OP(=O)(O)O)[C@H]3O)cc2)cc1 [MG(1,4,5)IP3] | 0.708 µM |  | 1.74 µM |  | 
O=P(O)(O)O[C@H]1[C@H](O)[C@@H](O)[C@H](OP(=O)(O)O)[C@@H](OP(=O)(O)O)[C@H]1O [(1,3,4)IP3] |  |  |  | 18±6% | 2±1%
O=P(O)(O)O[C@@H]1[C@@H](O)[C@H](O)[C@H](O)[C@H](O)[C@H]1OP(=O)(O)O [(4,5)IP2] | 6.31 µM | 11.5 µM |  |  | 
O=P(O)(O)O[C@@H]1[C@H](O)[C@H](O)[C@@H](OP(=O)(O)O)[C@H](OP(=O)(O)O)[C@H]1O [(1,4,5)IP3] | 0.145 µM | 0.417 µM |  |  | 

The remaining lines, values ahead:

EC50 (IP3R2) | EC50 (IP3R3 [1]) | EC50 (IP3R3 [2]) | IP3R2 / Ca^2+release (%) (IP3R2; [3]) | IP3R3 / Ca^2+release (%) (IP3R3 [1]; [3]) | SMILES
0.115 µM | 0.324 µM |  |  |  | O=P(O)(O)O[C@@H]1[C@@H](O)[C@H](OP(=O)(O)O)C[C@H](O)[C@H]1OP(=O)(O)O [2-deoxy(1,4,5)IP3]
5.89 µM |  | 15.8 µM |  |  | O=P(O)(O)O[C@@H]1[C@@H](O)[C@H](OP(=O)(O)O)[C@H](O)C[C@H]1OP(=O)(O)O [3-deoxy(1,4,5)IP3]
